System: KRAS G12C-mutant advanced solid tumors
Assay: NCT04956640 Phase 1a monotherapy clinical response (BOR, ORR, DCR, DOR, TTR, % change from baseline, treatment duration)
Format: in vivo, human
Conditions: for Best overall response (BOR): Complete Response (CR), % / Best overall response (BOR): No Evaluable (NE), % / Best overall response (BOR): Partial Response (PR), % / Best overall response (BOR): Partial Response, pending confirmation and ongoing (uPR), % / Best overall response (BOR): Progressive Disease (PD), % / Best overall response (BOR): Stable Disease (SD), % / Disease control rate (CR + PR + uPR + SD), % / Objective response rate (CR + PR), % / Objective response rate, confirmed and unconfirmed (CR + PR + uPR), %: Phase 1a NSCLC patients; for Duration of response (DOR) 6 to <9 months / Duration of response (DOR) <6 months / Time to response (TTR) 2 to <4 months / Time to response (TTR) 4 to <6 months / Time to response (TTR) 6 to <9 months / Time to response (TTR) <2 months: Phase 1a responders
Procedure: The term “BOR” as used herein refers to best overall response based on investigator assessments using RECIST criteria (version 1.1). The minimum duration for BOR of SD is at least 6 weeks after the date of first dose of study drug.
The term “DOR” as used herein refers to duration of response, wherein DOR in months is calculated as the event or censoring date minus the response start date plus 1 day divided by 30.4375.
The term “ORR” as used herein refers to objective response rate, wherein objective response rate is the proportion of patients with BOR of CR or PR. Objective response rate, unconfirmed, is the proportion of patients with BOR of CR, PR, or uPR.
The term “TTR” as used herein refers to time to response, wherein TTR in months is calculated as response start date minus first dose date plus 1 day divided by 30.4375.
NCT04956640 includes Phase 1a dose escalation (Part A of NCT04956640, see Table 3) followed by a Phase 1b dose expansion (Parts B to E of NCT04956640, see Table 4). […] Phase 1b dose expansion will include 12 cohorts (See Table 4) to further evaluate safety and clinical activity.

[1] = Without Prior KRAS G12Ci (N = 8)
[2] = starting dose 50 mg BID (N = 14)
[3] = starting dose 100 mg BID (N = 24)
[4] = starting dose 150 mg BID (N = 25)
[5] = starting dose 200 mg BID (N = 12)

Question: Which results are given for C=CC(=O)N1CCN2C(=O)c3cc(F)c(-c4ccc(F)c5sc(N)c(C#N)c45)c(Cl)c3OCC[C@H]2C1 (single isomer, unassigned) [Formula I]?
Answer: Best observed response PD (unconfirmed and confirmed), patients (CRC): 1; Best observed response PR (unconfirmed and confirmed), patients (CRC): 1; Best observed response SD, patients (CRC): 13; Best observed response PD (unconfirmed and confirmed), patients (NSCLC naïve to KRAS G12Ci): 1; Best observed response SD, patients (NSCLC naïve to KRAS G12Ci): 1; Best observed response PD (unconfirmed and confirmed), patients (NSCLC with prior KRAS G12Ci): 3; Best observed response PR (unconfirmed and confirmed), patients (NSCLC with prior KRAS G12Ci): 1; Best observed response SD, patients (NSCLC with prior KRAS G12Ci): 3; Best observed response PD (unconfirmed and confirmed), patients (PANC): 2; Best observed response PR (unconfirmed and confirmed), patients (PANC): 2; Best observed response SD, patients (PANC): 2; Best overall response (BOR): Complete Response (CR), % (Total (N = 22)): (0.0) %; Best overall response (BOR): No Evaluable (NE), % (Total (N = 22)): (4.5) %; Best overall response (BOR): Partial Response (PR), % (Total (N = 22)): (18.2) %; Best overall response (BOR): Partial Response, pending confirmation and ongoing (uPR), % (Total (N = 22)): (0.0) %; Best overall response (BOR): Progressive Disease (PD), % (Total (N = 22)): (22.7) %; Best overall response (BOR): Stable Disease (SD), % (Total (N = 22)): (54.5) %; Disease control rate (CR + PR + uPR + SD), % (Total (N = 22)): (72.7) %; Objective response rate (CR + PR), % (Total (N = 22)): (18.2) %; Objective response rate, confirmed and unconfirmed (CR + PR + uPR), % (Total (N = 22)): (18.2) %; Best overall response (BOR): Complete Response (CR), % (With Prior KRAS G12Ci (N = 14)): (0.0) %; Best overall response (BOR): No Evaluable (NE), % (With Prior KRAS G12Ci (N = 14)): (7.1) %; Best overall response (BOR): Partial Response (PR), % (With Prior KRAS G12Ci (N = 14)): (7.1) %; Best overall response (BOR): Partial Response, pending confirmation and ongoing (uPR), % (With Prior KRAS G12Ci (N = 14)): (0.0) %; Best overall response (BOR): Progressive Disease (PD), % (With Prior KRAS G12Ci (N = 14)): (28.6) %; Best overall response (BOR): Stable Disease (SD), % (With Prior KRAS G12Ci (N = 14)): (57.1) %; Disease control rate (CR + PR + uPR + SD), % (With Prior KRAS G12Ci (N = 14)): (64.3) %; Objective response rate (CR + PR), % (With Prior KRAS G12Ci (N = 14)): (7.1) %; Objective response rate, confirmed and unconfirmed (CR + PR + uPR), % (With Prior KRAS G12Ci (N = 14)): (7.1) %; Best overall response (BOR): Complete Response (CR), % [1]: (0.0) %; Best overall response (BOR): No Evaluable (NE), % [1]: (0.0) %; Best overall response (BOR): Partial Response (PR), % [1]: (37.5) %; Best overall response (BOR): Partial Response, pending confirmation and ongoing (uPR), % [1]: (0.0) %; Best overall response (BOR): Progressive Disease (PD), % [1]: (12.5) %; Best overall response (BOR): Stable Disease (SD), % [1]: (50.0) %; Disease control rate (CR + PR + uPR + SD), % [1]: (87.5) %; Objective response rate (CR + PR), % [1]: (37.5) %; Objective response rate, confirmed and unconfirmed (CR + PR + uPR), % [1]: (37.5) %; Duration of response (DOR) 6 to <9 months (Total (N = 75)): 3 (15.8) n (%); Duration of response (DOR) <6 months (Total (N = 75)): 16 (84.2) n (%); Time to response (TTR) 2 to <4 months (Total (N = 75)): 2 (10.5) n (%); Time to response (TTR) 4 to <6 months (Total (N = 75)): 2 (10.5) n (%); Time to response (TTR) 6 to <9 months (Total (N = 75)): 1 (5.3) n (%); Time to response (TTR) <2 months (Total (N = 75)): 14 (73.7) n (%); Duration of response (DOR) 6 to <9 months [2]: 0 (0.0) n (%); Duration of response (DOR) <6 months [2]: 2 (100.0) n (%); Time to response (TTR) 2 to <4 months [2]: 0 (0.0) n (%); Time to response (TTR) 4 to <6 months [2]: 0 (0.0) n (%); Time to response (TTR) 6 to <9 months [2]: 0 (0.0) n (%); Time to response (TTR) <2 months [2]: 2 (100.0) n (%); Duration of response (DOR) 6 to <9 months [3]: 0 (0.0) n (%); Duration of response (DOR) <6 months [3]: 7 (100.0) n (%); Time to response (TTR) 2 to <4 months [3]: 1 (14.3) n (%); Time to response (TTR) 4 to <6 months [3]: 0 (0.0) n (%); Time to response (TTR) 6 to <9 months [3]: 1 (14.3) n (%); Time to response (TTR) <2 months [3]: 5 (71.4) n (%); Duration of response (DOR) 6 to <9 months [4]: 2 (33.3) n (%); Duration of response (DOR) <6 months [4]: 4 (66.7) n (%); Time to response (TTR) 2 to <4 months [4]: 0 (0.0) n (%); Time to response (TTR) 4 to <6 months [4]: 2 (33.3) n (%); Time to response (TTR) 6 to <9 months [4]: 0 (0.0) n (%); Time to response (TTR) <2 months [4]: 4 (66.7) n (%); Duration of response (DOR) 6 to <9 months [5]: 1 (25.0) n (%); Duration of response (DOR) <6 months [5]: 3 (75.0) n (%); Time to response (TTR) 2 to <4 months [5]: 1 (25.0) n (%); Time to response (TTR) 4 to <6 months [5]: 0 (0.0) n (%); Time to response (TTR) 6 to <9 months [5]: 0 (0.0) n (%); Time to response (TTR) <2 months [5]: 3 (75.0) n (%); Patients with best overall response of CR or PR (Phase 1a, Total (N = 75)): 19 (25.3) N′ (%)

Reference: patent US20240108618A1, “KRAS G12C INHIBITOR DOSING REGIMENS” (Eli Lilly and Company, priority 2022, published 2024)
